Source: PubChem BioAssay AID342 (DTP/NCI, 2004)
Several values for one entry are separate records, joined by “and”; a condition that tells them apart may be missing. Identical values can stand only once.

Tested on: Swiss mice, Sarcoma 180 sc, mean tumor weight T/C
Experiment: NCI In Vivo Anticancer Drug Screen. Data for tumor model Sarcoma 180 (subcutaneous) in Swiss mice
Settings: endpoint: mean tumor weight, higher = larger tumour
In short: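 Transplantable tumors were established in mice, compound was given, then survival or tumor size was recorded. The treated value was divided by the vehicle-control value.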

[1] = dose: 19.0 mg/kg/injection, schedule: Q01DX007 (ip), vehicle: carboxymethylcellulose (CMC)
[2] = dose: 37.5 mg/kg/injection, schedule: Q01DX007 (ip), vehicle: carboxymethylcellulose (CMC)
[3] = dose: 75.0 mg/kg/injection, schedule: Q01DX007 (ip), vehicle: carboxymethylcellulose (CMC)
[4] = dose: 250.0 mg/kg/injection, schedule: Q01DX007 (ip), vehicle: carboxymethylcellulose (CMC)

## C[C@]12CC[C@H](O)C[C@@H]1CC[C@@H]1[C@@H]2C(=O)C[C@]2(C)C3=CC(=O)O[C@H]3C[C@@H]12
dose: 5.0 mg/kg/injection, schedule: Q01DX007 (sc), vehicle: steriod suspending solution
  T/C: 103 % of control
dose: 10.0 mg/kg/injection, schedule: Q01DX007 (sc), vehicle: steriod suspending solution
  T/C: 97 % of control
dose: 40.0 mg/kg/injection, schedule: Q01DX007 (sc), vehicle: steriod suspending solution
  T/C: 95 % of control

## O=C1c2ccccc2C(=O)N1CCF
dose: 4.0 mg/kg/injection, schedule: Q01DX007 (ip), vehicle: carboxymethylcellulose (CMC)
  T/C: 90 % of control
dose: 8.0 mg/kg/injection, schedule: Q01DX007 (ip), vehicle: carboxymethylcellulose (CMC)
  T/C: 72 % of control

## CCCCCCCCCCCCCCCCC(C(=O)O)C(O)(CC(=O)O)C(=O)O (stereo not drawn)
[1]
  T/C: 81 % of control
[2]
  T/C: 104 % of control
[3]
  T/C: 91 % of control

## COCCOC1=C(N2CC2)C(=O)C(OCCOC)=C(N2CC2)C1=O
dose: 0.89 mg/kg/injection, schedule: Q01DX007 (sc), vehicle: saline
  T/C: 61 % of control
dose: 1.3 mg/kg/injection, schedule: Q01DX007 (sc), vehicle: saline
  T/C: 72 % of control
dose: 1.6 mg/kg/injection, schedule: Q01DX007 (oral), vehicle: saline
  T/C: 95 % of control
dose: 2.0 mg/kg/injection, schedule: Q01DX001 (ip), vehicle: saline
  T/C: 97 % of control
dose: 2.0 mg/kg/injection, schedule: Q01DX006 (iv), vehicle: saline
  T/C: 71 % of control
dose: 2.0 mg/kg/injection, schedule: Q01DX007 (im), vehicle: saline
  T/C: 59 % of control
dose: 2.0 mg/kg/injection, schedule: Q01DX007 (ip), vehicle: saline
  T/C: 56 % of control
dose: 2.0 mg/kg/injection, schedule: Q01DX007 (sc), vehicle: saline
  T/C: 45 % of control
dose: 2.0 mg/kg/injection, schedule: Q03DX003 (ip), vehicle: saline
  T/C: 64 % of control
dose: 2.4 mg/kg/injection, schedule: Q01DX007 (oral), vehicle: saline
  T/C: 75 % of control
dose: 3.0 mg/kg/injection, schedule: Q01DX001 (ip), vehicle: saline
  T/C: 48 % of control
dose: 3.0 mg/kg/injection, schedule: Q01DX006 (iv), vehicle: saline
  T/C: 48 % of control
dose: 3.0 mg/kg/injection, schedule: Q01DX007 (im), vehicle: saline
  T/C: 59 % of control
dose: 3.0 mg/kg/injection, schedule: Q01DX007 (ip), vehicle: saline
  T/C: 37 % of control
dose: 3.0 mg/kg/injection, schedule: Q01DX007 (sc), vehicle: saline
  T/C: 30 % of control
dose: 3.0 mg/kg/injection, schedule: Q03DX003 (ip), vehicle: saline
  T/C: 50 % of control
dose: 3.6 mg/kg/injection, schedule: Q01DX007 (oral), vehicle: saline
  T/C: 73 % of control
dose: 4.0 mg/kg/injection, schedule: Q01DX006 (iv), vehicle: saline
  T/C: 21 % of control
dose: 4.0 mg/kg/injection, schedule: Q03DX003 (ip), vehicle: saline
  T/C: 51 % of control
dose: 5.3 mg/kg/injection, schedule: Q01DX007 (oral), vehicle: saline
  T/C: 38 % of control
dose: 6.0 mg/kg/injection, schedule: Q01DX001 (ip), vehicle: saline
  T/C: 83 % of control
dose: 6.0 mg/kg/injection, schedule: Q03DX003 (ip), vehicle: saline
  T/C: 33 % of control
dose: 8.0 mg/kg/injection, schedule: Q01DX007 (oral), vehicle: saline
  T/C: 34 % of control
dose: 12.0 mg/kg/injection, schedule: Q01DX001 (ip), vehicle: saline
  T/C: 32 % of control

## CCOC(=O)CCCc1ccc(N/N=N/c2nc[nH]c2C(N)=O)cc1
dose: 46.0 mg/kg/injection, schedule: Q01DX007 (ip), vehicle: carboxymethylcellulose (CMC)
  T/C: 79 % of control and 80 % of control
dose: 187.0 mg/kg/injection, schedule: Q01DX007 (ip), vehicle: carboxymethylcellulose (CMC)
  T/C: 46 % of control
[4]
  T/C: 39 % of control

## O=c1[nH]c2cc(Cl)c(Cl)cc2o1
[1]
  T/C: 83 % of control
[2]
  T/C: 90 % of control
[3]
  T/C: 94 % of control
dose: 150.0 mg/kg/injection, schedule: Q01DX007 (ip), vehicle: carboxymethylcellulose (CMC)
  T/C: 81 % of control

## O=c1[nH]cc(C(F)(F)F)c(=O)[nH]1
dose: 200.0 mg/kg/injection, schedule: Q01DX007 (ip), vehicle: saline
  T/C: 63 % of control
dose: 300.0 mg/kg/injection, schedule: Q01DX007 (ip), vehicle: saline
  T/C: 73 % of control

## CCCn1cnc2c(=S)nc[nH]c21
dose: 43.0 mg/kg/injection, schedule: Q01DX007 (ip), vehicle: carboxymethylcellulose (CMC)
  T/C: 75 % of control
dose: 61.0 mg/kg/injection, schedule: Q01DX007 (ip), vehicle: carboxymethylcellulose (CMC)
  T/C: 44 % of control
dose: 93.0 mg/kg/injection, schedule: Q01DX007 (ip), vehicle: carboxymethylcellulose (CMC)
  T/C: 35 % of control
dose: 140.0 mg/kg/injection, schedule: Q01DX007 (ip), vehicle: carboxymethylcellulose (CMC)
  T/C: 28 % of control

## O=C1Nc2ccccc2/C1=C/c1cccnc1
dose: 62.5 mg/kg/injection, schedule: Q01DX007 (ip), vehicle: carboxymethylcellulose (CMC)
  T/C: 100 % of control
dose: 125.0 mg/kg/injection, schedule: Q01DX007 (ip), vehicle: carboxymethylcellulose (CMC)
  T/C: 79 % of control
[4]
  T/C: 43 % of control

## CC1CN1P(=O)(N1CCCC1)N1CC1C (stereo not drawn)
dose: 15.5 mg/kg/injection, schedule: Q#A X014 (ip), vehicle: saline
  T/C: 27 % of control and 48 % of control
dose: 23.5 mg/kg/injection, schedule: Q#A X014 (ip), vehicle: saline
  T/C: 4 % of control
dose: 31.0 mg/kg/injection, schedule: Q01DX007 (ip), vehicle: saline
  T/C: 77 % of control
dose: 47.0 mg/kg/injection, schedule: Q01DX007 (ip), vehicle: saline
  T/C: 100 % of control
dose: 70.0 mg/kg/injection, schedule: Q01DX007 (ip), vehicle: saline
  T/C: 50 % of control

## C[C@@H](N)[C@@H](O)c1ccccc1
dose: 3.13 mg/kg/injection, schedule: Q01DX007 (ip), vehicle: saline
  T/C: 89 % of control
dose: 6.25 mg/kg/injection, schedule: Q01DX007 (ip), vehicle: saline
  T/C: 91 % of control
dose: 12.5 mg/kg/injection, schedule: Q01DX007 (ip), vehicle: saline
  T/C: 51 % of control
dose: 25.0 mg/kg/injection, schedule: Q01DX007 (ip), vehicle: saline
  T/C: 52 % of control

## CCCOP(=S)(N1CC1)N1CC1
dose: 6.65 mg/kg/injection, schedule: Q#A X014 (ip), vehicle: methylcellulose (MC)
  T/C: 74 % of control
dose: 6.65 mg/kg/injection, schedule: Q#A X014 (ip), vehicle: saline
  T/C: 80 % of control and 89 % of control
dose: 10.0 mg/kg/injection, schedule: Q#A X014 (ip), vehicle: methylcellulose (MC)
  T/C: 67 % of control
dose: 15.0 mg/kg/injection, schedule: Q#A X014 (ip), vehicle: methylcellulose (MC)
  T/C: 47 % of control
dose: 15.0 mg/kg/injection, schedule: Q#A X014 (ip), vehicle: saline
  T/C: 37 % of control and 40 % of control

## Cc1nc2nc(N)nc(N)c2nc1C
dose: 10.0 mg/kg/injection, schedule: Q01DX007 (ip), vehicle: carboxymethylcellulose (CMC)
  T/C: 89 % of control
dose: 11.46 mg/kg/injection, schedule: Q01DX007 (ip), vehicle: carboxymethylcellulose (CMC)
  T/C: 106 % of control
dose: 20.0 mg/kg/injection, schedule: Q01DX007 (ip), vehicle: carboxymethylcellulose (CMC)
  T/C: 77 % of control
dose: 22.92 mg/kg/injection, schedule: Q01DX007 (ip), vehicle: carboxymethylcellulose (CMC)
  T/C: 77 % of control
dose: 40.0 mg/kg/injection, schedule: Q01DX007 (ip), vehicle: carboxymethylcellulose (CMC)
  T/C: 68 % of control
dose: 45.85 mg/kg/injection, schedule: Q01DX007 (ip), vehicle: carboxymethylcellulose (CMC)
  T/C: 86 % of control
dose: 80.0 mg/kg/injection, schedule: Q01DX007 (ip), vehicle: carboxymethylcellulose (CMC)
  T/C: 81 % of control
dose: 91.7 mg/kg/injection, schedule: Q01DX007 (ip), vehicle: carboxymethylcellulose (CMC)
  T/C: 51 % of control

## O=c1[nH]c(=S)c2[nH]c(=O)[nH]c2[nH]1
dose: 50.0 mg/kg/injection, schedule: Q#A X014 (ip), vehicle: methylcellulose (MC)
  T/C: 94 % of control
dose: 100.0 mg/kg/injection, schedule: Q#A X014 (ip), vehicle: methylcellulose (MC)
  T/C: 73 % of control
dose: 200.0 mg/kg/injection, schedule: Q#A X014 (ip), vehicle: methylcellulose (MC)
  T/C: 101 % of control
